Reference: article doi:10.1101/2021.09.10.459855v1 (bioRxiv, 2021)

Legend:
[1] = test system: MHC II and CD86 on LPS-activated DCs; assay: DC surface marker expression, MHC II+CD86+ population; type: cell-based, mouse; settings: 24 hours, 100 μM
[2] = Micelle surface charge; type: physicochemical; settings: 100 μM in deionized, distilled water (ddH2O); Malvern DLS Zetasizer
[3] = Micelle morphology by negative-stain TEM; type: physicochemical
[4] = test system: LPS-activated DC TNF-α secretion; assay: DC TNF-α secretion; type: cell-based, mouse; settings: for Decrease of DC TNF-α secretion: 6 hours
[5] = test system: LPS-activated DC CCL22 production; assay: DC CCL22 production; type: cell-based, mouse
[6] = test system: LPS-activated Mφ TNF-α secretion (mouse RAW 264.7); assay: Mφ TNF-α secretion; type: cell-based; settings: 6 hours

Vasoactive intestinal peptide [VIP]
MHC II and CD86 surface markers on DCs [1]: failed to downregulate MHC II and CD86
Zeta potential [2]: 6.82 ± 0.67 mV
Aggregation / particle morphology ([3]; 100 μM (highest concentration)): aggregate into spherical nanoparticles
Particle formation ([3]; lower concentrations than 100 μM (data not shown)): no particle formation was observed
Decrease of DC TNF-α secretion ([4]; 10 μM): slightly
Decrease of DC TNF-α secretion ([4]; 100 μM): more extensively
DC TNF-α secretion ([4]; 24 hours, 1 μM and 10 μM, versus LPS alone): suppressed TNF-α generation
DC CCL22 production ([5]; 1 μM and 10 μM (Figure S7)): reduced CCL22 production
DC CCL22 production ([5]; 100 μM (Figure S7)): enhanced CCL22 expression
Mφ TNF-α secretion ([6]; 100 μM): cytokine secretion was suppressed
Mφ TNF-α secretion ([6]; concentration-dependent (0.1 - 100 μM), versus LPS alone): mild to moderate TNF-α suppression
